Source: patent US20150065416A1, “NOVEL DRUG COMBINATION” (FAB PHARMA SAS, priority 2013, published 2015)

Experiments:
A. baumannii SAN strain = assay: Bactericidal activity (time kill kinetics, Example 5); type: cell-based, Acinetobacter baumannii; conditions: alone at 2×MIC
Experimental: In addition, a second set of experiments involved the testing of compound(I)/additional antibacterial agent combinations of 2×/2×MIC. Samples were taken at 0, 3, 6 and 24 hours in order to determine colony forming units (CFU/mL).

A. baumannii SAN-94040 [1] = assay: Mouse model of A. baumannii pneumonia, Study 1: survival; type: in vivo, Acinetobacter baumannii
Experimental: (§1) The bacterial inoculum was prepared in order to obtain a suspension containing 10^8 CFU/mL of Acinetobacter baumannii in saline.
(§2) Experimentations were performed with six-week old female C3H/HeN mice (18-20 g, Breeding Centre JANVIER (Ile saint Genest Mayenne 53)) because of their particular susceptibility to Acinetobacter baumannii and the reproducibility of the results (inbreeding in the breed). Each mouse was individually marked and housed in cages containing five animals/cage under ventilated and controlled (temperature and humidity) atmosphere.
(§3) The mice were rendered transiently neutropenic by 2 intra-peritoneal (IP) injections of 150 μL of cyclophosphamide (Endoxan® 150 mg/kg) 4 (D-4) and 3 (D-3) days before the Acinetobacter baumannii inoculation (Day 0). This transient immunosuppression was sufficient to facilitate the development of the A. baumannii pneumonia while allowing the recovery of the neutrophil influx 2 (Day 2) days after inoculation in order to avoid or limit a systemic bacterial dissemination.
(§4) Mice were anesthetized by a mixture of oxygen and isoflurane. The bacterial inoculation was performed on Day 0 by intra-tracheal installation using an endotracheal catheter (50 μl of the suspension, thus 5.106 CFU). The positioning of the catheter in the trachea (instead of in the oesophagus) was checked by a “ring test”. The bacterial count in lungs was checked for all study groups by sacrificing one mouse immediately after inoculation.
Survival observations were assessed twice daily, up to 4 days post infection. The survival rates were compared with the Chi-square test or the Fisher exact test as appropriate. The survival curves were compared by the Kaplan-Meier method.
The aim of this experiment was to assess the […], with compound (I) via intra-peritoneal route at 200 mg/kg 3 times daily (every 8 hours) for 1 day alone and in combination with meropenem at 50 mg/kg 3 times daily (every 8 hours) for 1 day or with amikacin at 18 mg/kg 3 times daily (every 8 hours) for 1 day.

A. baumannii SAN-94040 [2] = assay: Mouse model of A. baumannii pneumonia, Study 2: bacterial counts in blood and tissues; type: in vivo, Acinetobacter baumannii
Experimental: as §1, §2, §3, §4
Sample time points: T0 (pre-inoculation), T24h (post inoculation), T48h and T72h.
Blood samples preparation: At each time point, three mice were sacrificed per group by cervical dislocation.
Tissue samples preparation: At each time point, three mice were sacrificed per group. Lungs, kidneys, liver and spleen were collected after the blood sampling and cervical dislocation. Tissues were wiped with a sterile gauze to remove blood contaminant outside. Tissues were then be weighed, finely ground and plated on agar for quantitative culture. Cultures were incubated at 37° C. for 18 to 24 hours.
(§5) The aim of this experiment was to assess the bacterial counts in blood, lungs, spleen, liver and kidneys of transiently neutropenic female C3H/HeN mice administered, 3 hours post-inoculation of A. baumannii SAN-94040 via intra-tracheal route, with compound (I) via intra-peritoneal route at 200 mg/kg 3 times daily (every 8 hours) for 1 day alone and in combination with meropenem at 50 mg/kg 3 times daily (every 8 hours) for 1 day or with amikacin at 18 mg/kg 3 times daily (every 8 hours) for 1 day.
All results concerning bacterial counts were expressed from Day 0 (inoculation) to 72 hours post-inoculation (Day 3). Bacterial counts on Day 3 were carried out only on surviving mice and results were more objectionable for interpretation. On Day 0, only bacterial count in lung of control mice was performed. Bacterial cell counts were determined as set out in the General Procedures.

A. baumannii SAN-94040 [3] = assay: Additional mouse model of A. baumannii pneumonia (Example 7): survival; type: in vivo, Acinetobacter baumannii
Experimental: The bacterial inoculum was prepared in order to obtain a suspension containing 10^8 CFU/mL of Acinetobacter baumannii in saline, unless indicated otherwise.
Experimentations were performed with six-week old female C3H/HeN mice (18-20 g, Harlan Laboratories) because of their particular susceptibility to Acinetobacter baumannii. Each mouse was individually marked and housed in cages containing five animals/cage under ventilated and controlled (temperature and humidity) atmosphere.
The mice were rendered transiently neutropenic by 2 intra-peritoneal (IP) injections of 150 μL of cyclophosphamide (150 mg/kg) 4 (D-4) and 3 (D-3) days before the Acinetobacter baumannii inoculation (Day 0).
Mice were infected with 50 μL the prepared bacterial suspension (inoculums depending on experiment) via intra-tracheal inoculation of mouse. In the study, three animals (Group 1) were sacrificed after inoculation to determine bacterial burden in lungs at the time of infection. Lungs were aseptically removed, weighed and homogenized in 1 mL of 0.9% NaCl. Homogenates were serially diluted and plated on TSA agar. Plates were incubated overnight at 37° C. in 5% CO2. Following incubation, colonies were counted for bacterial growth.
Animal survival was assessed every day for 7 days. Survival data were tabulated and a Probit analysis performed to determine the 50% protective dose (PD50) for each group.
as §5, with “survival rate” for “bacterial counts in blood, lungs, spleen, liver and kidneys”, “30” for “50 mg/kg 3 times daily (every 8 hours) for 1 day or with amikacin at 18”

[4] = Study 1, 0 h after infection, doses as E210
[5] = Study 1, 24 h after infection, doses as E210
[6] = Study 1, 48 h after infection, doses as E210
[7] = Study 1, 72 h after infection, doses as E210
[8] = Study 1, 96 h after infection, doses as E210
[9] = Study 1, C3H/HeN mice, 0 h after SAN-94040 infection, compound (I) 200 mg/kg, amikacin 18 mg/kg, meropenem 50 mg/kg q 8 h I.P.
[10] = Study 2, 24 h, compound (I) 200 mg/kg Q8h, amikacin 18 mg/kg, meropenem 50 mg/kg Q8h I.P. for 1 day
[11] = Example 7, 24 h after SAN-94040 infection, compound (I) 200 mg/kg, meropenem 30 mg/kg, colistin 125000 UI/kg Q8h I.P. for 1 day
[12] = Example 7, 24 h after infection, doses as E246
[13] = Example 7, 48 h after infection, doses as E246
[14] = Example 7, 72 h after infection, doses as E246
[15] = Example 7, 96 h after infection, doses as E246

Compound: CCc1cc(O)c(Oc2ccc(C(N)=O)cc2F)cc1F [compound (I), 4-(4-ethyl-5-fluoro-2-hydroxyphenoxy)-3-fluorobenzamide]
- effect in time-kill study when tested alone (A. baumannii SAN strain): bacteriostatic
- survivors (%) (A. baumannii SAN-94040 [1]; [4]): 100%
- No. of survivors (A. baumannii SAN-94040 [1]; [5]): 10
- survivors (%) (A. baumannii SAN-94040 [1]; [5]): 71%
- No. of survivors (A. baumannii SAN-94040 [1]; [6]): 0
- No. of survivors (A. baumannii SAN-94040 [1]; [7]): 0
- survivors (%) (A. baumannii SAN-94040 [1]; [7]): 0%
- No. of survivors (A. baumannii SAN-94040 [1]; [8]): 0
- No. of survivors (A. baumannii SAN-94040 [1]; [9]): 14
- time post-infection within which all animals died (A. baumannii SAN-94040 [1]; Study 1, SAN-94040): ≤ 48 h
- lung bacterial counts (A. baumannii SAN-94040 [2]; [10]): 4.72E+09 CFU/g Lung
- lung bacterial counts (A. baumannii SAN-94040 [2]; Study 2, 48 h): 3.75E+05 CFU/g Lung
- No. of survivors (A. baumannii SAN-94040 [3]; [11]): 10
- survivors (%) (A. baumannii SAN-94040 [3]; [12]): 100%
- No. of survivors (A. baumannii SAN-94040 [3]; [13]): 8
- survivors (%) (A. baumannii SAN-94040 [3]; [13]): 80%
- No. of survivors (A. baumannii SAN-94040 [3]; [14]): 6
- survivors (%) (A. baumannii SAN-94040 [3]; [14]): 60%
- No. of survivors (A. baumannii SAN-94040 [3]; [15]): 6
- survivors (%) (A. baumannii SAN-94040 [3]; [15]): 60%
- survival rate (A. baumannii SAN-94040 [3]; Example 7, text, time not stated): 60%

Compound: C[C@@H](O)[C@H]1C(=O)N2C(C(=O)O)=C(S[C@@H]3CN[C@H](C(=O)N(C)C)C3)[C@H](C)[C@H]12 [meropenem]
- effect in time-kill study when tested alone (A. baumannii SAN strain): bactericidal
- survivors (%) (A. baumannii SAN-94040 [1]; [4]): 100%
- No. of survivors (A. baumannii SAN-94040 [1]; [5]): 14
- survivors (%) (A. baumannii SAN-94040 [1]; [5]): 100%
- No. of survivors (A. baumannii SAN-94040 [1]; [6]): 11
- survivors (%) (A. baumannii SAN-94040 [1]; [6]): 79%
- No. of survivors (A. baumannii SAN-94040 [1]; [7]): 6
- survivors (%) (A. baumannii SAN-94040 [1]; [7]): 43%
- No. of survivors (A. baumannii SAN-94040 [1]; [8]): 6
- survivors (%) (A. baumannii SAN-94040 [1]; [8]): 43%
- No. of survivors (A. baumannii SAN-94040 [1]; [9]): 14
- efficacy compared to the control group (A. baumannii SAN-94040 [1]; Study 1, survival): significant efficacy
- blood bacterial counts (A. baumannii SAN-94040 [2]; Study 2, 24 h): 0 CFU/mL Blood
- lung bacterial counts (A. baumannii SAN-94040 [2]; [10]): 3.75E+04 CFU/g Lung
- blood bacterial counts (A. baumannii SAN-94040 [2]; Study 2, 48 h): 0 CFU/mL Blood
- kidney bacterial counts (A. baumannii SAN-94040 [2]; Study 2, 48 h): 0 CFU/g Kidneys
- liver bacterial counts (A. baumannii SAN-94040 [2]; Study 2, 48 h): 0 CFU/g Liver
- lung bacterial counts (A. baumannii SAN-94040 [2]; Study 2, 48 h): 5.56E+06 CFU/g Lung
- blood bacterial counts (A. baumannii SAN-94040 [2]; Study 2, 72 h): 0 CFU/mL Blood
- kidney bacterial counts (A. baumannii SAN-94040 [2]; Study 2, 72 h): 0 CFU/g Kidneys
- liver bacterial counts (A. baumannii SAN-94040 [2]; Study 2, 72 h): 0 CFU/g Liver
- spleen bacterial counts (A. baumannii SAN-94040 [2]; Study 2, 72 h): 0 CFU/g Spleen
- lung bacterial counts (A. baumannii SAN-94040 [2]; Study 2, 72 h, surviving mice only): 1.00E+00 CFU/g Lung
- No. of survivors (A. baumannii SAN-94040 [3]; [11]): 10
- survivors (%) (A. baumannii SAN-94040 [3]; [12]): 100%
- No. of survivors (A. baumannii SAN-94040 [3]; [13]): 10
- survivors (%) (A. baumannii SAN-94040 [3]; [13]): 100%
- No. of survivors (A. baumannii SAN-94040 [3]; [14]): 10
- survivors (%) (A. baumannii SAN-94040 [3]; [14]): 100%
- No. of survivors (A. baumannii SAN-94040 [3]; [15]): 10
- survivors (%) (A. baumannii SAN-94040 [3]; [15]): 100%

Compound: NCC[C@H](O)C(=O)N[C@@H]1C[C@H](N)[C@@H](O[C@H]2O[C@H](CN)[C@@H](O)[C@H](O)[C@H]2O)[C@H](O)[C@H]1O[C@H]1O[C@H](CO)[C@@H](O)[C@H](N)[C@H]1O [amikacin]
- effect in time-kill study when tested alone (A. baumannii SAN strain): bactericidal
- survivors (%) (A. baumannii SAN-94040 [1]; [4]): 100%
- No. of survivors (A. baumannii SAN-94040 [1]; [5]): 12
- survivors (%) (A. baumannii SAN-94040 [1]; [5]): 86%
- No. of survivors (A. baumannii SAN-94040 [1]; [6]): 1
- survivors (%) (A. baumannii SAN-94040 [1]; [6]): 17%
- No. of survivors (A. baumannii SAN-94040 [1]; [7]): 0
- No. of survivors (A. baumannii SAN-94040 [1]; [8]): 0
- No. of survivors (A. baumannii SAN-94040 [1]; [9]): 14
- lung bacterial counts (A. baumannii SAN-94040 [2]; [10]): 1.33E+09 CFU/g Lung
- lung bacterial counts (A. baumannii SAN-94040 [2]; Study 2, 48 h): 4.41E+08 CFU/g Lung
